≈ marks a conversion by molar mass, not a printed value.

What all share (type): functional
Assay [1] concerns Candida albicans. The assay is described as follows: Antifungal activity against Candida albicans CPCC400616 measured after 24 hrs by broth microdilution assay.
In assay [2] the test system is Candida albicans. The assay is described as follows: Antifungal activity against Candida albicans ATCC SC5314 measured after 24 hrs by broth microdilution assay. A general note: Dilution methods test growth across graded concentrations, often in twofold steps.
Assay [3] concerns [Candida] zeylanoides. The assay is described as follows: Antifungal activity against Candida zeylanoides CMGCC2.3739 measured after 24 hrs by broth microdilution assay. The following applies: Dujonia zeylanoides.
Assay [4] deals with Cryptococcus neoformans. The assay is described as follows: Antifungal activity against Cryptococcus neoformans CMGCC2.3161 measured after 72 hrs by broth microdilution assay.
Assay [5] relates to Pichia kudriavzevii. The assay is described as follows: Antifungal activity against Candida krusei AS2.1045 measured after 24 hrs by broth microdilution assay.
For assay [6], the system named is Nakaseomyces glabratus. The assay is described as follows: Antifungal activity against Candida glabrata measured after 24 hrs by broth microdilution assay.
The test system of assay [7] is Candida parapsilosis. The assay is described as follows: Antifungal activity against Candida parapsilosis ATCC 22019 measured after 24 hrs by broth microdilution assay. Particulars: Lodderomyces parapsilosis.
Assay [8] has as its system Aspergillus fumigatus. The assay is described as follows: Antifungal activity against Aspergillus fumigatus CMGCC3.7795 measured after 72 hrs by broth microdilution assay.
For assay [9], the system named is Candida albicans. The assay is described as follows: Antifungal activity against fluconazole-resistant Candida albicans CaR assessed as inhibition of microbial growth after 24 hrs by broth microdilution method.
The subject of assay [10] is Candida albicans. The assay is described as follows: Antifungal activity against fluconazole-resistant Candida albicans 17# assessed as inhibition of microbial growth after 24 hrs by broth microdilution method.
Assay [11] concerns Candida albicans. The assay is described as follows: Antifungal activity against fluconazole-resistant Candida albicans 632 assessed as inhibition of microbial growth after 24 hrs by broth microdilution method.
Assay [12] concerns Candida albicans. The assay is described as follows: Antifungal activity against fluconazole-resistant Candida albicans 901 assessed as inhibition of microbial growth after 24 hrs by broth microdilution method.
Assay [13] concerns Candida albicans. The assay is described as follows: Antifungal activity against fluconazole-resistant Candida albicans 904 assessed as inhibition of microbial growth after 24 hrs by broth microdilution method.
The subject of assay [14] is Candida albicans. The assay is described as follows: Potency index, ratio of fluconazole MIC to test compound MIC for Candida albicans CPCC400616 measured after 24 hrs by broth microdilution assay.

For the compound `Cc1ccccc1[Se]C(Cn1ccnc1)c1ccc(Cl)cc1Cl` (stereo not drawn), the MIC (in general, the least concentration at which growth counts as inhibited) in assay [1] stood at 0.13 µg/mL (≈ 0.317 µM); in assay [2], 0.03 µg/mL (≈ 0.0731 µM); in assay [3], 0.5 µg/mL (≈ 1.22 µM); in assay [4] it was 0.5 µg/mL (≈ 1.22 µM); in assay [5] it was 0.13 µg/mL (≈ 0.317 µM); in assay [6] it was 0.25 µg/mL (≈ 0.609 µM). The MIC in assay [7] came to 0.5 µg/mL (≈ 1.22 µM); in assay [8], 16 µg/mL (≈ 39 µM); in assay [9], 4 µg/mL; in [10], 2 µg/mL; in assay [11], 0.5 µg/mL; in assay [12], 0.5 µg/mL. For the same compound, the MIC in [13] stood at 0.5 µg/mL. The Ratio in assay [14] amounted to 8.

As for `Clc1ccc(C(Cn2ccnc2)[Se]c2ccccc2)c(Cl)c1` (stereo not drawn), the MIC in assay [1] came to 0.25 µg/mL (≈ 0.631 µM); in assay [2] it was 0.13 µg/mL (≈ 0.328 µM); in assay [3], 0.25 µg/mL (≈ 0.631 µM); in assay [4] it was 0.13 µg/mL (≈ 0.328 µM); in assay [5], 0.13 µg/mL (≈ 0.328 µM); in assay [6] it was 1 µg/mL (≈ 2.52 µM). Moreover, the MIC was determined as 0.25 µg/mL (≈ 0.631 µM) in assay [7]; 8 µg/mL (≈ 20.2 µM) in assay [8]; 1 µg/mL in [9]; 1 µg/mL in assay [10]; 1 µg/mL in assay [11]; 2 µg/mL in assay [12]. In addition, the MIC in [13] was determined as 2 µg/mL. For the same compound, the Ratio in assay [14] is given as 8.

As to `COc1ccccc1[Se]C(Cn1ccnc1)c1ccc(F)cc1F` (stereo not drawn), the MIC stood at 1 µg/mL (≈ 2.54 µM) in assay [1]; 0.02 µg/mL (≈ 0.0509 µM) in [2]; 0.13 µg/mL (≈ 0.331 µM) in [3]; 1 µg/mL (≈ 2.54 µM) in assay [4]; 0.5 µg/mL (≈ 1.27 µM) in [5]; 0.25 µg/mL (≈ 0.636 µM) in [6]. For the same compound, the MIC in assay [7] was 0.13 µg/mL (≈ 0.331 µM); in assay [8], 8 µg/mL (≈ 20.3 µM); in assay [9], 8 µg/mL; in assay [10] it was 8 µg/mL; in assay [11], 16 µg/mL; in assay [12], 4 µg/mL. Besides, the MIC in assay [13] worked out at 8 µg/mL. The Ratio in assay [14] is reported as 8.

As to `Cc1cc(C)cc([Se]C(Cn2ccnc2)c2ccc(Cl)cc2Cl)c1` (stereo not drawn), the MIC in assay [1] came out at 0.5 µg/mL (≈ 1.18 µM); in [2], 0.06 µg/mL (≈ 0.141 µM); in assay [3], 0.5 µg/mL (≈ 1.18 µM); in assay [4], 0.5 µg/mL (≈ 1.18 µM); in assay [5], 0.5 µg/mL (≈ 1.18 µM); in assay [6], 0.25 µg/mL (≈ 0.589 µM). For the same compound, the MIC in [7] came out at 0.5 µg/mL (≈ 1.18 µM); in assay [8], 8 µg/mL (≈ 18.9 µM); in [9], 8 µg/mL; in assay [10] it was 16 µg/mL; in assay [11], 16 µg/mL; in [12] it was 4 µg/mL. The MIC in [13] was found to be 16 µg/mL. The Ratio in assay [14] is listed as 8.

Take `Cc1cc(C)cc([Se]C(Cn2ccnc2)c2ccc(F)cc2F)c1` (stereo not drawn): the MIC was 0.13 µg/mL (≈ 0.332 µM) in assay [1]; 0.03 µg/mL (≈ 0.0767 µM) in assay [2]; 0.5 µg/mL (≈ 1.28 µM) in assay [3]; 0.5 µg/mL (≈ 1.28 µM) in assay [4]; 0.13 µg/mL (≈ 0.332 µM) in [5]; 0.5 µg/mL (≈ 1.28 µM) in assay [6]. Further, the MIC in assay [7] amounted to 0.13 µg/mL (≈ 0.332 µM); in assay [8], 8 µg/mL (≈ 20.4 µM); in [9] it was 2 µg/mL; in [10] it was 4 µg/mL; in assay [11], 8 µg/mL; in [12] it was 4 µg/mL. For the same compound, the MIC in assay [13] is 8 µg/mL. In assay [14], the Ratio turned out to be 8.

Consider `CCc1ccccc1[Se]C(Cn1ccnc1)c1ccc(Cl)cc1Cl` (stereo not drawn), for which the MIC in assay [1] was 0.25 µg/mL (≈ 0.589 µM); in [2], 0.03 µg/mL (≈ 0.0707 µM); in assay [3], 0.5 µg/mL (≈ 1.18 µM); in assay [4], 0.5 µg/mL (≈ 1.18 µM); in [5], 0.5 µg/mL (≈ 1.18 µM); in assay [6] it was 0.13 µg/mL (≈ 0.306 µM). The minimal inhibitory concentration (MIC) was 0.13 µg/mL (≈ 0.306 µM) in assay [7]; 8 µg/mL (≈ 18.9 µM) in [8]; 2 µg/mL in assay [9]; 4 µg/mL in [10]; 16 µg/mL in [11]; 4 µg/mL in [12]. Moreover, the MIC in assay [13] came to 1 µg/mL. The Ratio in [14] is reported as 8.

For the compound `COc1ccc([Se]C(Cn2ccnc2)c2ccc(Cl)cc2Cl)cc1` (stereo not drawn), the MIC in [1] worked out at 0.13 µg/mL (≈ 0.305 µM); in assay [2], 0.03 µg/mL (≈ 0.0704 µM); in [3], 0.5 µg/mL (≈ 1.17 µM); in assay [4], 0.25 µg/mL (≈ 0.587 µM); in assay [5] it was 0.02 µg/mL (≈ 0.0469 µM); in assay [6], 0.25 µg/mL (≈ 0.587 µM). Besides, the MIC in assay [7] is 0.25 µg/mL (≈ 0.587 µM); in [8] it was 16 µg/mL (≈ 37.5 µM); in [9] it was 8 µg/mL; in assay [10], 2 µg/mL; in [11], 2 µg/mL; in [12] it was 8 µg/mL. The MIC in [13] is 8 µg/mL. Moreover, in [14], the Ratio was determined as 8.
